Values of other authors as cited in patent US5693668A, “Acetylcholinesterase inhibitors” (priority 1989, dated 1997).

Conditions: Bronaugh and Stewart, J. Pharm. Sci. 1984; cited from earlier work

Substance: polyethylene glycol 20 Oleyl ether [PEG 20 oleyl ether]
- effect on integrity or permeation characteristics of the skin: not found to affect the integrity or the permeation characteristics of the skin
